Measured values: patent publication US20160237511A1, “METHODS FOR D[…] SENSITIVITY TO VIRAL INHIBITORS” (priority 2013, published 2016)

Key:
[1] = tested on: replicons containing patient-derived NS5B regions from GT1, GT2, GT3, and GT4 viruses; assay: PhenoSense HCV NS5B Assay, luciferase replicon panel across genotypes; assay type: cell-based, hepatitis C virus (HCV); conditions: for variation in susceptibility within and between genotypes: GT1-GT4 chimeric replicons, IC50/IC95 fold change
Experimental: Most samples were received as frozen plasma and were accompanied by information including HCV genotype and/or subtype (e.g., 1a, 1b, 2, 3, 4) and viral load. Samples were thawed and stored in frozen aliquots if necessary, and a 200 μL aliquot was processed. Virus particles were disrupted by addition of lysis buffer containing a chaotropic agent. Genomic viral RNA (vRNA) was extracted from viral lysates using oligo-nucleotide linked magnetic beads. Purified vRNA was used as a template for first-strand cDNA synthesis in a reverse transcriptase (RT) reaction. The resulting cDNA was used as the template for the first round of a nested polymerase chain reaction (PCR) that results in the amplification of the entire NS5B region. Due to the sequence variation between different genotypes, specific RT and first and second round PCR primers were used. If genotype and/or subtype information was not available, more than one primer set can be used sequentially or in parallel.
The second round (nested) PCR amplification primer set contained restriction endonuclease recognition/cleavage sites that enable cloning of NS5B amplification products into an HCV replicon resistance test vector (RTV) for phenotypic drug susceptibility analysis. […] Plasmid DNA was purified from bacterial cultures, using silica column chromatography, and was quantified by spectrophotometry.
Prior to in vitro transcription of the RTV, the plasmid DNA template was linearized by restriction endonuclease digestion and column purified. […] In vitro transcribed RNA was column purified, quantified, and the integrity was evaluated using electrophoretic separation.
RTV RNA was electroporated into a Huh7 cell line, and electroporated cells were incubated in the absence and presence of serially diluted inhibitors. RNA input was monitored by measuring the amount of luciferase activity produced in the electroporated cells at 4 hours post-electroporation. Luciferase activity is expressed as relative light units (RLU). […]

[2] = tested on: GT1 (a/b) chimeric replicons (patient-derived NS5B); assay: PhenoSense HCV NS5B Assay, GT1 chimeric replicons; assay type: cell-based, hepatitis C virus (HCV); conditions: GT1a/b NS5B replicons
Experimental: (§1) RTV RNA was electroporated into a Huh7 cell line, and electroporated cells were incubated in the absence and presence of serially diluted inhibitors. RNA input was monitored by measuring the amount of luciferase activity produced in the electroporated cells at 4 hours post-electroporation. Luciferase activity is expressed as relative light units (RLU). Replication capacity (RC) was determined by evaluating luciferase activity at 72-96 hours postelectroporation in the absence of inhibitor, relative to RNA input and a control reference replicon RTV (Con1). A replication defective Con1 replicon (Con1 polymerase defective) was utilized to determine assay background (data not shown). Inhibitor susceptibility was determined by evaluating the ability of RTVs to replicate in the absence and presence of inhibitor at 72-96 hours post-electroporation. The % inhibition at each serial diluted inhibitor concentration was derived as follows:
(§2) [1−([…])]×100
(§3) Inhibitor susceptibility profiles (curves) were derived from these values, and inhibition data (e.g., IC50, the inhibitor concentration required to reduce virus replication by 50%; and IC95, the inhibitor concentration required to reduce virus replication by 95%) was extrapolated from fitted curves. […]

[3] = tested on: GT2 (a/b/k) chimeric replicons (patient-derived NS5B); assay: PhenoSense HCV NS5B Assay, GT2 chimeric replicons; assay type: cell-based, hepatitis C virus (HCV); conditions: for susceptibility of GT2 chimeric replicons: Example 4, IC50 fold change, compared to GT1 chimeric replicons
Experimental: as §1, §2
(§4) Inhibitor susceptibility profiles (curves) were derived from these values, and inhibition data (e.g., IC50, the inhibitor concentration required to reduce virus replication by 50%; and IC95, the inhibitor concentration required to reduce virus replication by 95%) was extrapolated from fitted curves. Inhibition data are reported as fold-change relative to that of a reference RTV (e.g., IC50 (sample)/IC50 (reference)) processed in the same assay batch (e.g., IC50 fold-change (FC) from reference). An example of the PhenoSense® HCV NS5B Assay workflow is shown in FIG. 1, and a representative inhibitor susceptibly curve is shown in FIG. 2.
(§5) To determine the susceptibility of different genotype viruses to various inhibitors, the PhenoSense® HCV NS5B Assay was used. A panel of replicons were generated that contained patient-derived NS5B regions from GT1 (a/b), GT2 (a/b/k), GT3 (a/unknown), and GT4 (a/d/n/unknown) viruses. The various chimeric replicons were used in the phenotypic susceptibility assays described herein. […]

[4] = tested on: GT4 (a/d/n/unknown) chimeric replicons (patient-derived NS5B); assay: PhenoSense HCV NS5B Assay, GT4 chimeric replicons; assay type: cell-based, hepatitis C virus (HCV); conditions: Example 4; IC50 fold change, compared to GT1 chimeric replicons
Experimental: as §1, §2, §3

[5] = tested on: GT3 (a/unknown) chimeric replicons (patient-derived NS5B); assay: PhenoSense HCV NS5B Assay, GT3 chimeric replicons; assay type: cell-based, hepatitis C virus (HCV); conditions: Example 4; for susceptibility of GT3 chimeric replicons: IC50 fold change, compared to GT1 chimeric replicons
Experimental: as §1, §2, §4, §5

HCV infection = conditions: cited from earlier work
[6] = non-primate animal species; cited from earlier work

CC(C)OC(=O)[C@H](C)N[P@](=O)(OC[C@H]1O[C@@H](n2ccc(=O)[nH]c2=O)[C@](C)(F)[C@@H]1O)Oc1ccccc1 [SOF, sofosbuvir]
variation in susceptibility within and between genotypes [1]: more variable between genotypes
susceptibility among GT1 replicons [2]: similar
susceptibility of GT2a compared to GT2b chimeric replicons ([3]; Example 4 (FIG. 8, FIG. 9)): more increased susceptibility
susceptibility of GT2 chimeric replicons [3]: increased susceptibility
susceptibility of GT4 chimeric replicons [4]: significantly reduced
susceptibility of GT3 viruses compared to GT2 [5]: reduced susceptibility
susceptibility of GT3 chimeric replicons [5]: significantly reduced
most common adverse effects (HCV infection; administered in combination with PEG-IFN): fatigue, headache, nausea, insomnia, and anemia
reported adverse effects (HCV infection; administered in combination with ribavirin): fatigue and headache

NC(=O)c1ncn([C@@H]2O[C@H](CO)[C@@H](O)[C@H]2O)n1 [RBV, ribavirin]
variation in susceptibility within and between genotypes [1]: more variable between genotypes
IC FC range ([1]; IC fold change vs Con1 reference, range over GT1-GT4 viruses (FIG. 6, FIG. 10)): 25
susceptibility among GT1 replicons [2]: similar
susceptibility of GT2 chimeric replicons [3]: statistically significant increases
teratogenic effects [6]: Significant teratogenic effects
susceptibility of GT4 chimeric replicons [4]: particularly susceptible
susceptibility of GT3 chimeric replicons [5]: particularly susceptible
half-life (HCV infection; in the body): long half-life
anemia (HCV infection; patients): cause of anemia
